Each structure is given as a SMILES string.

Holding throughout (type): in vivo, Arabidopsis
Test [1] concerns wild type plants. Nature of the test: thermal imaging of leaf temperature. The note with it: 2 μM, 24 hours. The procedure:
(§1) To investigate if the system is sufficient to control ABA responses in vegetative tissues, we generated homozygous transgenic lines for two 35S-driven lines (E15 and E16) and 2 RBCS-driven lines (F29 and F34). These materials were grown along side wild type plants and a previously constructed 35S::GFP-PYR1 over expression line (Park et al., 2009). These plants were grown until three weeks old and then treated with a solution containing either 2 μM mandipropamid and 0.02% Silwet or a mock treatment containing 0.02% Silwet and the mandipropamid carrier solvent (DMSO). 24 hours after treatment, the leaf temperatures were examined using a thermal imaging camera. It is well known that ABA-induced guard cell closure reduces transpiration, which leads to increases in leaf temperatures. […] Since guard cell aperture is the primary determinant of transpiration rates, thermal imaging is a useful way to indirectly infer relative transpiration rates and guard cell aperture at the whole plant level. As is shown in FIG. 3, mandipropamid treatment of homozygous PYR1^MANDI expressing transgenic plants leads to large changes in leaf temperature (˜2° C. increase) within 24 hours of treatment.

Test [2] relates to 35S::GFP-PYR1 expressing transgenic plants. As to the kind of experiment: thermal imaging of leaf temperature. To be noted: 35S::GFP-PYR1, 2 μM, 24 hours. The procedure:
as §1

Test [3] has as its system 35S::PYR1^MANDI lines MDP1, MDP2, MDP3. As to the kind of experiment: seed germination assay, 250 nM mandipropamid. To be noted: 3 days post-stratification. From the text: To further characterize the physiological effects of the PYR1^MANDI/mandipropamid interaction, we characterized three independently generated transgenic Arabidopsis lines in more detail. These lines, initially named E9, E16 and E31 are henceforth referred to as MPD1, MPD2 and MPD3. Each of these lines is homozygous for a single 35S::PYR1^MANDI insertion site and is the result of independent transformation events. We first used germination assays to characterize the relative mandipropamid sensitivity of these lines. Seeds for the transgenics and wild type control were surface sterilized with bleach and then stratified for 4 days at 4° C. on 0.7% agar petri plates containing ½ MS salts and 0.5% sucrose in addition to either 250 nM mandipropamid or a mock treatment of 0.1% DMSO (the carrier solvent). After stratification, the plates were transferred to a growth chamber operating on a 16-hour day length cycle. Seed germination was scored 3 days post-stratification. […] To more definitively assess the relative sensitivity of the MDP1 and MDP2 lines to mandipropamid, we conducted germination dose-response experiments (using the same procedure described above) and confirmed that the MDP1 line is more sensitive to mandipropamid than MDP2 (FIG. 7B).

The subject of test [4] is PYR1^MANDI expressing transgenic plants (E15, E16, F29, F34). Nature of the test: water loss of detached rosettes. The note with it: 2 μM mandipropamid, 24 hours before detachment. As for the experimental part:
As another measure of guard cell physiology, we measured rates of water loss in transgenic and control plants exposed to mock or mandipropamid treatments. It is well known that ABA treatments reduce leaf water loss via guard cell closure. 3 week-old homozygous transgenic plants (E15, E16, F29 and F34) and control wild type plants were treated with 2 μM mandipropamid or mock solutions (with 0.02% Silwet as described above). After 24 hours, whole rosettes were detached and their masses monitored over time. […] These experiments, together with the thermal imaging experiments, indicate that mandipropamid can reduce guard cell aperture and reduce transpiration rates in PYR1^MANDI expressing transgenic plants, just as ABA is well known to do to wild type plants.

The subject of test [5] is PYR1-OX. As to the kind of experiment: root growth inhibition assay. The note with it: 72 hours after transfer. An excerpt: (§2) Given the relatively high mandipropamid sensitivity of the MDP1 and MDP2 transgenic lines, these lines were subjected to further physiological characterization. One of ABA's physiological effects is to inhibit root growth. Mandipropamid should therefore inhibit root growth in the MDP1 and MDP2 transgenic lines, but not wild type, if it is successfully activating this ABA response. To test this, seeds of the wild type, PYR1-OX, MDP1 and MDP2 genotypes were surface sterilized in bleach and plated on to 0.7% agar petri plates containing ½ MS salts and 0.5% sucrose. After 4 days of stratification at 4° C., the plates were transferred to a growth chamber operating on a 16-hour day length cycle and allowed to germinate for 24 hours and then transferred to petri plates (0.7% agar containing ½ MS salts and 0.5% sucrose) supplemented with differing concentrations of mandipropamid. These plates were then grown vertically in a growth chamber operating on a 16-hour day length cycle. The amount of root growth after transfer was measured 72-hours later after transfer.

Test [6] relates to wild type. Nature of the test: root growth inhibition assay. The note with it: 72 hours after transfer.
Source text: as §2

In test [7] the test system is MDP1 and MDP2 transgenic genotypes. Nature of the test: root growth inhibition assay. The note with it: MDP1 and MDP2, 72 hours after transfer.
Source text: as §2

Test [8] concerns PYR1^MANDI transgenic plants (E15, E16, F29, F34). As to the kind of experiment: progressive water loss regime (drought). The note with it: 2 μM mandipropamid, repeated 4 days later; day 11. As for the experimental part:
Treatment of plants with ABA delays water loss and additionally improves the ability of plants to recover from drought. We therefore examined the behavior of wild type, 35S::GFP-PYR and 4 homozygous PYR1^MANDI expressing transgenic plants (E15, E16, F29 and F34) during a progressive water loss regime. […] Plants were grown for three weeks in pots containing the same mass of soil and receiving the same amount of water at each watering. At three weeks after germination, regular watering of the plants was ceased and plants were treated with mock or 2 μM mandipropamid. These treatments were repeated 4 days later. Plants were photographed at 1, 10 and 11 days after initiation of water deprivation. As is evident from FIG. 6, by day 10 mock treated plants display evidence of water stress as indicated by collapsed leaves, by day 11 all mock treated plants have experienced severe desiccation. […] This is also observed for wild type and 35S::GFP-PYR plants treated with mandipropamid at day 10. […] This is in contrast to wild type and 35S::GFP-PYR1 control plants treated with mandipropamid and all mock treated lines. Thus, mandipropamid is able to improve drought stress tolerance in PYR1^MANDI expressing transgenic plants. The beneficial effects of mandipropamid are restricted to PYR1^MANDI expressing transgenic plants.

`C#CCOc1ccc(CCNC(=O)C(OCC#C)c2ccc(Cl)cc2)cc1OC` (stereo not drawn) [Mandipropamid, mandipropamid]: the “leaf temperature effect of mandipropamid” value in test [1] and in test [2] was “not observed” throughout. Besides, the seed germination result in test [3] (MDP1 seed, 250 nM mandipropamid) was “near complete germination inhibition”; in test [3] (MDP3, 250 nM mandipropamid), “minimal sensitivity”. Also, in test [4], the “water loss of detached rosettes” value is given as “lower water loss”. Moreover, the root growth result in test [5] was “negligible inhibition”; in test [6], “negligible inhibition”; in test [7], “inhibited”. Also, in test [8], the “desiccation during water deprivation” value was “not desiccated”.

The values above are taken from patent publication US9738902B2, “Modified PYR/PYL receptors activated by ligands” (priority 2013, dated 2017).
